Experiment [1] relates to Mono Mac 6 cells on IL-1 activated HUVEC; arrest potentiated by RANTES and PF4. In words: Inhibition of monocyte arrest on activated endothelium under flow. Format: cell-based, human. The settings on record: 6 μM peptide, 60 nM RANTES and PF4, 1.5 dyn/cm2, adherent cells after 4 minutes. Here is the method:
Endothelial cells from the human umbilical cord (HUVEC, human umbilical vein endothelial cells, PromoCell, Heidelberg) were cultured in endothelial cell growth medium (PromoCell, Heidelberg) and used after two to four passages.
Monocytic Mono Mac 6 cells (MM6, DSMZ) were cultured in RPMI 1640 medium (PAA Laboratories, Pasching, Austria) with the addition of 10% fetal calf serum, 2 mM L-glutamine (Biowhittaker), 1 mM sodium pyruvate, 50 μg/mL gentamycin and 9 μg/mL insulin (MM6 medium). The cells were sown with a density of 2×10^5/mL in 2 mL MM6 medium in 24-well plates and cultured at 37° C. in a humid atmosphere with 5% CO2 for 3 to 4 days before being used for experiments.
The interaction of monocytic Mono Mac 6 cells on activated endothelial cells was investigated.
Petri dishes with confluent HUVEC cells layers activated with IL-113 (Interleukin 1(3, Peprotech, 10 ng/mL, 12 hours) were placed in a flow chamber. Mono Mac 6 cells (0.5×10^6 cells/mL) were resuspended in balanced Hank solution (HBSS with 10 mM HEPES (Gibco BRL), pH 7.3, 0.5% bovine serum albumin (Serva)) and kept on ice. Five minutes before the experiment, Ca^2+ and Mg^2+ were added to the monocytic MM6 cells to yield a final concentration of 1 mM and 60 nM of the chemokines RANTES (Peprotech, Rocky Hill, N.J., USA) and PF4 (ChromaTec, Greifswald), respectively, and 6 μM of the polypeptides of the sequence SEQ ID NO: 2 according to formula (2), the sequence SEQ ID NO: 3 according to formula (3) or a control peptide of the sequence SEQ ID NO: 14 according to formula (14) and then heated up to 37° C. Cells pretreated in this way were then perfused over endothelial cells at 1.5 dyn/cm^2 on a microscope of model IX 50 from Olympus. The number of monocytes that were adherent due to the interaction with the endothelial cells was determined after 4 minutes in various fields by image analysis of photographs by a video camera (3CCD, JVC) and recorder. The data were analyzed as the mean (n=5)±standard deviation (p<0.02) in comparison with a control.

The target of experiment [2] is T1, interaction of RANTES and PF4 (Homo sapiens, UniProt P02776+P13501).
T1 construct: made in house; host or cells: chemical synthesis (t-Boc solid phase peptide synthesis and native chemical ligation); no expression host
T1 sequence (P13501 24-91): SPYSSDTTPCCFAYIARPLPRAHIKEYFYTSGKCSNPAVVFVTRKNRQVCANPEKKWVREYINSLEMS
T1 sequence (P02776 32-101): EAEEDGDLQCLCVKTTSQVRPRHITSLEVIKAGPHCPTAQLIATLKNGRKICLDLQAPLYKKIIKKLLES
In words: Plasmon resonance (Biacore) study of inhibition of RANTES binding to immobilized biotinylated PF4. Here is the method:
The plasmon resonance studies were performed using HBS-EP buffer (10 mM HEPES, 150 mM NaCl, 0.005% Tween 20, pH 7.4).
Two flow cells of a Cl chip (Biacore AB, Uppsala, Sweden) were activated by injection of 50 μL ethyl(dimethylaminopropyl)carbodiimide/N-hydroxysuccinimide (0.2M/0.05M, Pierce) and then 20 μL streptavidine (0.2 mg/mL, Sigma-Aldrich) was perfused over the activated surface. The surface was next inactivated by four successive injections of 20 μL […] (1M, pH 8, Sigma-Aldrich).
Biotinylated human PF4 (bPF4) at the N-terminus was chemically synthesized by means of t-Boc-based solid phase peptide synthesis and native chemical ligation of PF4 (Dawson, P. E., Kent, S. B. (2000), Annu. Rev. Biochem. 69:923-960, Hackeng, T. M., Griffin, J. H., Dawson, P. E. (1999), Proc. Natl. Acad. Sci. USA, vol. 96, pp. 10068-10073). The bPF4 was immobilized on the dextran surface of a Cl sensor chip by injecting 200 μg/mL bPF4 into HBS-EP through one of the flow chambers and recorded 240 resonance units (RU). The second flow chamber was not treated with bPF4 and served as the reference.
Binding of RANTES (0.5 μM, recombinant human RANTES, Peprotech, Rocky Hill, N.J., USA) or RANTES (0.5 μM) that had been preincubated with various concentrations (0 μM, 10 μM and 100 μM) of the polypeptide of the sequence SEQ ID NO: 3 according to formula (3) in HBS-EP buffer overnight at room temperature to bPF4 was determined by injection of 15 μL of the respective peptide/RANTES mixture and observation of the binding for 180 seconds. The coupling was determined and the measurements were performed in a Biacore 2000 apparatus (Biacore AB) at a flow rate of 5 μL/min. Sensor grams of the RANTES binding were corrected using the BIAevaluation 3.0 software (Biacore AB) to correct for nonspecific background signals and equilibrium resonance units (RU) were determined for each injection.
In another experiment under the same conditions as those described for example 1, the binding of RANTES (0.5 μM) or RANTES (0.5 μM) that had been preincubated with 0 μM, 10 μM, 50 μM and 100 μM of the polypeptide of the sequence SEQ ID NO: 3 according to formula (3), SEQ ID NO: 2 according to formula (2) or a control peptide of the sequence SEQ ID NO: 14 according to formula (14) as given below: […]
A general note: In SPR one partner is held on a chip, and binding of the other changes the refractive index at the surface.

Experiment [3] relates to atherosclerotic lesions in ApoE mice. In words: Mouse model of atherosclerosis (ApoE mice on high-fat diet). Format: in vivo. As to conditions: 50 μg intraperitoneal three times a week for 12 weeks. Here is the method: The model for artherosclerosis [sic; atherosclerosis] was 9- to 12-week-old female ApoE litter-mate mice (The Jackson Lab, Bar Harbor, Me., USA). The mice were fed a high-fat diet (21% fat, Altromin® C1061) for 12 weeks. During this period of time, two groups of mice received intraperitoneal injections of 50 μg of the polypeptide of the sequence SEQ ID NO: 15 according to formula (15), administered three times a week, as indicated below:
(n=7 mice) in saline solution. An untreated group of mice (n=12) was used as additional controls.
The mice were sacrificed for histological examination. […] Blood samples were taken at the beginning and end of the experimental nutrition period. The white blood cell count was determined by hemocytometry and the sera were collected, the cholesterol using the Infinity cholesterol kits (Thermo Electron, Melbourne, Australia).
The extent of the atherosclerosis was determined at the aortic route and on thoracoabdominal aorta by staining lipid deposits using Oil Red O staining (N. R. Veillard, B. Kwak, G. Pelli, F. Mulhaupt, R. W. James, A. E. Proudfoot, F. Mach, Antagonism of RANTES receptors reduces atherosclerotic plaque formation in mice. Circ. Res. 2004; 94:253-61) and quantified by means of computerized image analysis (Diskus software, Hilgers, Aachen). Areas of atherosclerotic lesions were determined in 5 μm transverse sections through the heart and aortic root. The determination was performed for each aortic root on the basis of lipid stained areas of six sections a distance of 50 μm apart. The areas of atherosclerotic lesions were divided by the total surface area of the valve of each section. The thoracoabdominal aorta was opened along the ventral midline and the areas of the lesions were stained in an en-face preparation using Oil Red-O staining. The proportional amount of lipid deposit was calculated by dividing the stained area by the total thoracoabdominal surface area.

Consider CKEYFYTSGKCSNPAVVFVTRC [SEQ ID NO: 2], for which, in experiment [1], the “inhibition of potentiation of monocyte arrest due to heterophilic interaction of RANTES and PF4 (in words)” value is reported as “weaker”.
Regarding CKEYFYTSGKSSNPGIVFITRC [SEQ ID NO: 3], the “reduction of binding of RANTES to immobilized PF4” value in experiment [2] (RANTES 0.5 μM preincubated overnight with peptide at 100 μM, Example 1) is listed as “up to 35%”. In experiment [2] (RANTES 0.5 μM preincubated with 0, 10 and 100 μM peptide, Example 1), the “inhibition of the interaction of RANTES and PF4 (in words)” value is on record as “concentration-dependent inhibition”. Further, the “inhibition of the interaction of RANTES and PF4 (comparison in words)” value in experiment [2] (RANTES 0.5 μM preincubated with 10 μM, 50 μM and 100 μM peptide, Example 2) is “definitely more effective than the polypeptide of the sequence SEQ ID NO: 2”. Also, in experiment [1], the “inhibition of potentiation of monocyte arrest due to heterophilic interaction of RANTES and PF4” value is on record as “up to 80%”.
For CKEYFYTSSKSSNLAVVFVTRC [SEQ ID NO: 15], in experiment [3], the “area of the aortic root showing plaque in relation to the total valve surface area” value was “significantly reduced” and the “macrophage content in the lesions” value was “significantly reduced”. For the same sequence, in experiment [3] (Oil Red O staining), the “development of atherosclerotic lesions in comparison with mice that received the control peptide” value was “significant reduction”.
Turning to “KEYFYTSGK [SEQ ID NO: 14, control peptide, reference compound]”, the “inhibition of the interaction of RANTES and PF4 (in words)” value in experiment [2] (RANTES 0.5 μM preincubated with 100 μM peptide, Example 2) is “did not exhibit any detectable inhibition”. Further, in experiment [1], the “inhibition of potentiation of monocyte arrest due to heterophilic interaction of RANTES and PF4 (in words)” value is listed as “no significant inhibition”.
